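Compound exposure: 48 hours, 5 concentrations, 96-well plates. Definition used: TGI = concentration required for complete inhibition of growth.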
Assays:
Test in all cases: inhibition of tumour cell growth, NCI panel, 48 h
UO-31 renal = test system: UO-31 renal
RXF 393 renal = test system: RXF 393 renal
SNB-19 CNS = test system: SNB-19 CNS
SR leukemia = test system: SR leukemia
NCI/ADR-RES ovarian = test system: NCI/ADR-RES ovarian
HOP-62 NSCLC = test system: HOP-62 NSCLC
NCI-H460 lung = test system: NCI-H460 lung
T-47D breast = test system: T-47D breast
SK-MEL-5 melanoma = test system: SK-MEL-5 melanoma
KM12 colon = test system: KM12 colon
A549 NSCLC = test system: A549 NSCLC
SK-MEL-28 melanoma = test system: SK-MEL-28 melanoma
IGROV1 ovarian = test system: IGROV1 ovarian
NCI-H23 lung = test system: NCI-H23 lung
CAKI-1 renal = test system: CAKI-1 renal
MALME-3M melanoma = test system: MALME-3M melanoma
PC-3 prostate = test system: PC-3 prostate
SF-295 CNS = test system: SF-295 CNS
CCRF-CEM leukemia = test system: CCRF-CEM leukemia
HL-60(TB) leukemia = test system: HL-60(TB) leukemia

Structure (SMILES) | TGI (UO-31 renal) [µM] | TGI (RXF 393 renal) [µM] | TGI (SNB-19 CNS) [µM] | TGI (SR leukemia) [µM] | TGI (NCI/ADR-RES ovarian) [µM] | TGI (HOP-62 NSCLC) [µM] | TGI (NCI-H460 lung) [µM] | TGI (T-47D breast) [µM] | TGI (SK-MEL-5 melanoma) [µM] | TGI (KM12 colon) [µM] | TGI (A549 NSCLC) [µM] | TGI (SK-MEL-28 melanoma) [µM] | TGI (IGROV1 ovarian) [µM] | TGI (NCI-H23 lung) [µM] | TGI (CAKI-1 renal) [µM] | TGI (MALME-3M melanoma) [µM] | TGI (PC-3 prostate) [µM] | TGI (SF-295 CNS) [µM] | TGI (CCRF-CEM leukemia) [µM] | TGI (HL-60(TB) leukemia) [µM]
NC(N)=NC(N)=Nc1c(F)c(F)c(F)c(F)c1F | > 100 | > 100 | > 100 | > 100 | > 100 | > 100 | > 100 | > 100 | > 100 | > 100 | > 100 | > 100 | > 100 | > 100 | > 100 | > 100 | > 100 | > 100 | – | –
Cc1nnc2sc(-c3ccc(-c4ccccc4Cl)o3)nn12 | > 100 | > 100 | > 100 | 53.6 | 52.8 | > 100 | > 100 | 91.6 | 61.3 | > 100 | > 100 | – | > 100 | 74.2 | > 100 | > 100 | > 100 | > 100 | > 100 | 63.3
O=C1CCc2cc3c(cc21)CC1(Cc2ccccc2C1)C3 | > 100 | > 76.8 | > 100 | 5.18 | > 60.1 | > 84.6 | > 100 | > 100 | 17.8 | > 100 | > 100 | > 100 | > 100 | > 86.5 | 47.2 | > 100 | > 93.6 | > 87.1 | 7.03 | 5.26
O=C1C(=O)N(C2CCCCC2)C(=S)N1C1CCCCC1 | > 100 | > 100 | > 100 | > 100 | > 100 | > 100 | > 100 | > 100 | > 100 | > 100 | > 100 | > 100 | > 100 | > 100 | > 100 | > 100 | > 100 | > 100 | > 100 | > 100
C=C(Br)CN(CC(=C)Br)C(C)=O | > 100 | > 100 | > 100 | > 100 | > 100 | > 100 | > 100 | > 100 | > 100 | > 100 | > 100 | > 100 | > 100 | > 100 | > 100 | > 100 | > 100 | > 100 | > 100 | > 100
COc1ccc(-c2c(C#N)c(S)n(C3OC(CO)C(O)C(O)C3O)c(=O)c2C#N)cc1 (stereo not given) | > 100 | > 100 | > 100 | > 100 | > 100 | > 100 | > 100 | > 100 | > 100 | > 100 | > 100 | > 100 | > 100 | > 100 | > 100 | > 100 | > 100 | > 100 | > 100 | > 100
O=[N+]([O-])/C(C(Cl)=C(Cl)Cl)=C1/OCCS1 | 40.2 | 41.3 | > 100 | 71.5 | 33.6 | 40.4 | 71.4 | 91 | 34 | 94.3 | 55.6 | 96.5 | 47.7 | 72.4 | 72.7 | 40.8 | > 100 | 90.5 | 35.4 | 37.6
Clc1ncnc2c1nc(C#Cc1ccccc1)n2Cc1ccccc1 | 5.47 | 48 | > 100 | > 100 | > 100 | > 100 | > 100 | > 100 | > 100 | > 100 | > 100 | 44.2 | – | 42.8 | 37.1 | > 100 | > 100 | > 100 | > 100 | > 100
CC1CC[C@@]2(OC1)OC1C[C@H]3[C@@H]4CC[C@H]5CC(OC6OC(CO)C(OC7OC(CO)C(O)C(O)C7O)C(O)C6O)CCC5(C)[C@H]4CCC3(C)C1[C@@H]2C (stereo not given in full) | 22.5 | 19.8 | 17.9 | 27.5 | 19.9 | 16.1 | 21.1 | 20.4 | 16.1 | 15.8 | 19.6 | 16.6 | 9.77 | 16.2 | 16.9 | 15.7 | 15.1 | 16.4 | 21.7 | 18.5
Nc1nnc(-c2ccco2)c(-c2ccco2)n1 | > 100 | > 100 | > 100 | > 100 | > 100 | – | > 100 | > 100 | > 100 | > 100 | > 100 | > 100 | > 100 | > 100 | > 100 | > 100 | > 100 | > 100 | > 100 | > 100
c1ccc2c(c1)CCN2CCc1c[nH]c2ccccc12 | > 10 | > 10 | > 10 | > 10 | > 10 | > 10 | > 10 | > 10 | > 10 | > 10 | > 10 | > 10 | > 10 | > 10 | > 10 | > 10 | > 10 | > 10 | > 10 | > 10
NCCCc1ccc2oc3ccccc3c2c1 | 29.6 | 32.4 | 31 | 52.2 | 46.3 | 32 | 34.1 | 33.7 | 28.5 | – | 32.9 | 32.9 | 43.7 | 41.8 | 29.7 | 34.3 | 33.1 | 33.2 | 32.6 | 31.2
CSc1c(C(=O)Nc2ccc(Cl)cc2)c(N)[nH]c(=O)c1C#N | 59 | > 96.3 | > 100 | > 100 | > 76.5 | 73 | > 100 | > 83.3 | 64.3 | > 100 | > 100 | > 100 | > 100 | 53.3 | > 61.1 | > 100 | 47.7 | 83.6 | > 100 | > 100
Cc1ccc(-c2n[nH]c(=O)[nH]2)cc1 | > 100 | > 100 | > 100 | > 100 | > 100 | > 100 | > 100 | > 46.4 | > 100 | > 100 | > 100 | > 100 | > 100 | > 100 | > 100 | > 100 | > 100 | > 100 | > 100 | > 100
Cc1cc(C2(c3cc(C)c(O)c(C(=O)O)c3)OS(=O)(=O)c3ccccc32)cc(C(=O)O)c1O | > 100 | > 100 | > 100 | > 100 | > 100 | > 100 | > 100 | > 100 | > 100 | > 100 | > 100 | > 100 | > 100 | – | > 100 | > 100 | > 100 | > 100 | – | > 100
N=c1oc2ccc(Cl)cc2cc1C(=O)Nc1ccccc1 | > 100 | > 100 | > 100 | > 100 | > 100 | > 94.8 | > 100 | > 44.8 | > 100 | > 100 | > 100 | > 100 | > 100 | > 100 | > 100 | > 100 | > 100 | > 100 | > 100 | > 100
COc1cc(/C=C/C2=NN(c3cccc(S(=O)(=O)O)c3)C3(C2)C(Cl)C(=O)N3c2nc3ccccc3s2)ccc1O (stereo not given) | 33.6 | > 100 | > 100 | 34.8 | 99.4 | – | > 100 | 26.4 | 85.2 | 41.2 | > 100 | 76.6 | 31.5 | 29.6 | 33 | 34.5 | > 100 | – | 42.2 | 42.5
Cc1ccc(C(=O)C#Cc2cn(C3CC(O)C(CO)O3)c(=O)[nH]c2=O)cc1 (stereo not given) | > 100 | > 100 | > 100 | > 100 | > 100 | > 100 | > 100 | 45 | > 100 | > 100 | > 100 | > 100 | > 100 | > 100 | > 100 | 29.1 | > 100 | > 100 | – | –
CO[C@@H](c1ccccc1)[C@H](O)[C@](O)(c1ccccc1)P(=O)(OC)OC | > 100 | > 100 | > 100 | > 100 | > 100 | – | > 100 | > 100 | > 100 | > 100 | > 100 | > 100 | > 100 | > 100 | > 100 | > 100 | > 100 | > 100 | > 100 | > 100
O=C1CC(CC(OCc2ccccc2)C(COCc2ccccc2)OCc2ccccc2)CC(=O)N1 (stereo not given) | 58.5 | > 100 | – | > 100 | 97.9 | > 100 | > 100 | 94.5 | 30.9 | > 100 | > 100 | > 100 | > 100 | > 100 | 76.3 | 45.8 | 63.9 | > 100 | > 100 | > 100
O=C(NCCNCCO)N/N=C/c1ccc([N+](=O)[O-])cc1 | > 100 | – | > 100 | > 100 | > 100 | > 100 | > 100 | > 100 | > 100 | > 100 | > 100 | > 100 | > 100 | > 100 | > 100 | > 100 | > 100 | > 100 | > 100 | > 100
COc1ccc(/C=C(\NC(=O)c2ccccc2)C(=O)NN(C)c2ccnc3cc(Cl)ccc23)cc1OC | 80.4 | 38.4 | > 100 | 41.3 | 43.8 | > 100 | 39.3 | > 100 | 88.3 | 34.7 | 97.1 | 58.1 | 47.6 | 62.8 | 90.6 | 72.5 | 70.2 | 97.1 | – | –
N#Cc1ccc(OCc2ccc3nc(-c4ccccc4)c(Cl)nc3c2)cc1 | > 100 | – | > 100 | > 100 | > 100 | > 100 | > 100 | > 100 | > 100 | > 100 | > 100 | > 100 | > 100 | > 100 | > 100 | > 100 | > 100 | > 100 | > 100 | > 100
COC(=O)c1cc(-c2c[nH]cc2C(=O)OCc2ccccc2)cn1S(=O)(=O)c1ccc(C)cc1 | > 100 | > 100 | > 100 | > 100 | > 100 | > 100 | > 100 | > 100 | > 100 | > 100 | > 100 | – | > 100 | > 100 | > 100 | > 100 | > 100 | > 100 | > 100 | –
